Laboratory results from publication PMC5218480 (PLoS ONE, 2017).

Test system: MV-4-11 cells
Test: Gene expression microarray analysis (Affymetrix PrimeView) and GSEA
Format: cell-based, human
Design: RFU PODN (11730768_x_at) / Fold change /veh PODN (11730768_x_at) / RFU LINC00158 (11744669_a_at) / Fold change /veh LINC00158 (11744669_a_at) / RFU DUSP10 (11751237_a_at) / Fold change /veh DUSP10 (11751237_a_at) / RFU ID3 (11757404_x_at) / Fold change /veh ID3 (11757404_x_at) / RFU PLEKHG5 (11737974_s_at) / Fold change /veh PLEKHG5 (11737974_s_at) / RFU LRRC4B (11730491_at) / Fold change /veh LRRC4B (11730491_at) / RFU GIMAP4 (11747438_a_at) / Fold change /veh GIMAP4 (11747438_a_at) / RFU KRT8 (11758183_x_at) / Fold change /veh KRT8 (11758183_x_at) / RFU CNN1 (11734310_a_at) / Fold change /veh CNN1 (11734310_a_at) / RFU VPS37D (11726825_at) / Fold change /veh VPS37D (11726825_at) / RFU C10orf10 (11716522_x_at) / Fold change /veh C10orf10 (11716522_x_at) / RFU KIR2DL2 /// KIR2DL4 /// KIR2DL5A /// KIR2DL5B /// KIR2DS1 /// KIR2DS2 /// KIR2DS3 /// KIR2DS4 /// KIR3DL3 /// KIR3DL3 /// KIR3DS1 (11738374_at) / Fold change /veh KIR2DL2 /// KIR2DL4 /// KIR2DL5A /// KIR2DL5B /// KIR2DS1 /// KIR2DS2 /// KIR2DS3 /// KIR2DS4 /// KIR3DL3 /// KIR3DL3 /// KIR3DS1 (11738374_at) / RFU C1QL1 (11718748_at) / Fold change /veh C1QL1 (11718748_at) / RFU TMPRSS4 (11747572_a_at) / Fold change /veh TMPRSS4 (11747572_a_at) / RFU HAMP (11756126_x_at) / Fold change /veh HAMP (11756126_x_at) / RFU RNFT2 (11725882_a_at) / Fold change /veh RNFT2 (11725882_a_at) / RFU NR4A2 (11747474_a_at) / Fold change /veh NR4A2 (11747474_a_at) / RFU ABCC12 (11746883_a_at) / Fold change /veh ABCC12 (11746883_a_at) / RFU TMEM136 (11760407_x_at) / Fold change /veh TMEM136 (11760407_x_at) / RFU CLDN22 /// WWC2 (11732394_at) / Fold change /veh CLDN22 /// WWC2 (11732394_at) / RFU HLA-DPB1 (11760878_x_at) / Fold change /veh HLA-DPB1 (11760878_x_at) / RFU SPINT1 (11716480_a_at) / Fold change /veh SPINT1 (11716480_a_at) / RFU GAP43 (11754022_s_at) / Fold change /veh GAP43 (11754022_s_at) / RFU A4GNT (11735810_at) / Fold change /veh A4GNT (11735810_at) / RFU PRB3 (11715151_x_at) / Fold change /veh PRB3 (11715151_x_at) / RFU TUBB4B (11761932_at) / Fold change /veh TUBB4B (11761932_at) / RFU CAPN14 (11732068_a_at) / Fold change /veh CAPN14 (11732068_a_at) / RFU TMCC2 (11721928_a_at) / Fold change /veh TMCC2 (11721928_a_at) / RFU IRGQ (11745062_a_at) / Fold change /veh IRGQ (11745062_a_at) / RFU FAM174B (11720279_a_at) / Fold change /veh FAM174B (11720279_a_at) / RFU TMPRSS4 (11748680_a_at) / Fold change /veh TMPRSS4 (11748680_a_at) / RFU FAM212B (11763350_a_at) / Fold change /veh FAM212B (11763350_a_at) / RFU PLEKHG5 (11743358_a_at) / Fold change /veh PLEKHG5 (11743358_a_at) / RFU ZSCAN30 (11745921_a_at) / Fold change /veh ZSCAN30 (11745921_a_at) / RFU CMKLR1 (11741424_a_at) / Fold change /veh CMKLR1 (11741424_a_at) / RFU LOC101060620 /// MAPK8IP1 (11723275_at) / Fold change /veh LOC101060620 /// MAPK8IP1 (11723275_at) / RFU SPTSSB (11747773_x_at) / Fold change /veh SPTSSB (11747773_x_at) / RFU PRSS12 (11739890_at) / Fold change /veh PRSS12 (11739890_at) / RFU BIN1 (11741810_x_at) / Fold change /veh BIN1 (11741810_x_at) / RFU WNT11 (11732464_a_at) / Fold change /veh WNT11 (11732464_a_at) / RFU C10orf10 (11716521_a_at) / Fold change /veh C10orf10 (11716521_a_at) / RFU C5orf56 (11738089_at) / Fold change /veh C5orf56 (11738089_at) / RFU CYB561 (11721691_x_at) / Fold change /veh CYB561 (11721691_x_at) / RFU ANKRD19P (11752326_a_at) / Fold change /veh ANKRD19P (11752326_a_at) / RFU OR2T12 /// OR2T33 /// OR2T8 (11738714_s_at) / Fold change /veh OR2T12 /// OR2T33 /// OR2T8 (11738714_s_at) / RFU VCAN (11748164_a_at) / Fold change /veh VCAN (11748164_a_at) / RFU JSRP1 (11732532_at) / Fold change /veh JSRP1 (11732532_at) / RFU KRTAP10-11 (11738290_x_at) / Fold change /veh KRTAP10-11 (11738290_x_at) / RFU MYO3A (11730013_a_at) / Fold change /veh MYO3A (11730013_a_at) / RFU EBF3 (11725865_a_at) / Fold change /veh EBF3 (11725865_a_at) / RFU CAMK2N1 (11719241_x_at) / Fold change /veh CAMK2N1 (11719241_x_at) / RFU C5orf56 (11738088_a_at) / Fold change /veh C5orf56 (11738088_a_at) / RFU OLFML3 (11715873_a_at) / Fold change /veh OLFML3 (11715873_a_at) / RFU LOC100653217 /// NTM (11731650_a_at) / Fold change /veh LOC100653217 /// NTM (11731650_a_at) / RFU MAPK11 (11762145_a_at) / Fold change /veh MAPK11 (11762145_a_at) / RFU FIZ1 (11724087_x_at) / Fold change /veh FIZ1 (11724087_x_at) / RFU OASL (11726364_x_at) / Fold change /veh OASL (11726364_x_at) / RFU SOX15 (11748057_x_at) / Fold change /veh SOX15 (11748057_x_at) / RFU CD79A (11719716_a_at) / Fold change /veh CD79A (11719716_a_at) / RFU HIST1H1D (11736915_at) / Fold change /veh HIST1H1D (11736915_at) / RFU CASKIN2 (11723855_a_at) / Fold change /veh CASKIN2 (11723855_a_at) / RFU LOC730098 (11760151_x_at) / Fold change /veh LOC730098 (11760151_x_at) / RFU OR4N2 (11742367_at) / Fold change /veh OR4N2 (11742367_at) / RFU PRRT2 (11749266_a_at) / Fold change /veh PRRT2 (11749266_a_at) / RFU SNX32 (11753110_a_at) / Fold change /veh SNX32 (11753110_a_at) / RFU CDHR5 (11726645_a_at) / Fold change /veh CDHR5 (11726645_a_at) / RFU RCAN1 (11760418_a_at) / Fold change /veh RCAN1 (11760418_a_at) / RFU FAM167A (11723789_a_at) / Fold change /veh FAM167A (11723789_a_at) / RFU FAM26E (11764081_at) / Fold change /veh FAM26E (11764081_at) / RFU ISYNA1 (11749810_s_at) / Fold change /veh ISYNA1 (11749810_s_at) / RFU ACY1 (11761880_at) / Fold change /veh ACY1 (11761880_at) / RFU 11764098_at / Fold change /veh 11764098_at / RFU SAMD14 (11745864_x_at) / Fold change /veh SAMD14 (11745864_x_at) / RFU NPB (11741838_a_at) / Fold change /veh NPB (11741838_a_at) / RFU TMPRSS6 (11731388_a_at) / Fold change /veh TMPRSS6 (11731388_a_at) / RFU KRTAP10-2 (11738614_at) / Fold change /veh KRTAP10-2 (11738614_at) / RFU ARHGAP8 /// PRR5-ARHGAP8 (11727945_x_at) / Fold change /veh ARHGAP8 /// PRR5-ARHGAP8 (11727945_x_at) / RFU KRTAP5-7 /// NADSYN1 (11734609_at) / Fold change /veh KRTAP5-7 /// NADSYN1 (11734609_at) / RFU RASL12 (11751679_a_at) / Fold change /veh RASL12 (11751679_a_at) / RFU CDKN2B (11736163_a_at) / Fold change /veh CDKN2B (11736163_a_at) / RFU PRF1 (11729649_at) / Fold change /veh PRF1 (11729649_at) / RFU, ZNF638 /// ZNF638-IT1 / Fold change vs veh, ZNF638 /// ZNF638-IT1 / RFU, PANK3 / Fold change vs veh, PANK3 / RFU, SH3YL1 / Fold change vs veh, SH3YL1 / RFU, ZEB2 / Fold change vs veh, ZEB2 / RFU, NRIP1 / Fold change vs veh, NRIP1 / RFU, PTTG1IP / Fold change vs veh, PTTG1IP / RFU, CAPN2 / Fold change vs veh, CAPN2 / RFU, MED14 / Fold change vs veh, MED14 / RFU, SNORA58 / Fold change vs veh, SNORA58 / RFU, C1orf63 / Fold change vs veh, C1orf63 / RFU, LRRFIP1 / Fold change vs veh, LRRFIP1 / RFU, NDUFAF7 / Fold change vs veh, NDUFAF7 / RFU, SLC12A2 / Fold change vs veh, SLC12A2 / RFU, IBTK / Fold change vs veh, IBTK / RFU, ESF1 / Fold change vs veh, ESF1 / Fold change vs veh, TMEM50B / RFU, TAOK1 / Fold change vs veh, TAOK1 / RFU, ACBD3 / Fold change vs veh, ACBD3 / RFU, TMA16 / Fold change vs veh, TMA16 / RFU, RWDD3 / Fold change vs veh, RWDD3 / RFU, BCAT1 / Fold change vs veh, BCAT1 / RFU, EDEM3 / Fold change vs veh, EDEM3 / RFU, TMEM33 / Fold change vs veh, TMEM33 / RFU, WDR75 / Fold change vs veh, WDR75 / RFU, AHCTF1 / Fold change vs veh, AHCTF1 / RFU, TFRC / Fold change vs veh, TFRC / RFU, ZDHHC17 / Fold change vs veh, ZDHHC17 / RFU, NOM1 / Fold change vs veh, NOM1 / RFU, ARL8B / Fold change vs veh, ARL8B / RFU, ZBTB11 / Fold change vs veh, ZBTB11 / RFU, TAMM41 / Fold change vs veh, TAMM41 / RFU, KIAA1704 /// LOC100996395 / Fold change vs veh, KIAA1704 /// LOC100996395 / RFU, ING1 / Fold change vs veh, ING1 / RFU, TRMT61B / Fold change vs veh, TRMT61B / RFU, FUBP3 / Fold change vs veh, FUBP3 / RFU, TP53 / Fold change vs veh, TP53 / RFU, TNKS2 / Fold change vs veh, TNKS2 / RFU, ZFP14 / Fold change vs veh, ZFP14 / RFU, ACTR2 / Fold change vs veh, ACTR2 / RFU, PPP3R1 / Fold change vs veh, PPP3R1 / RFU, PIK3R1 / Fold change vs veh, PIK3R1 / RFU, HNRNPA1 / Fold change vs veh, HNRNPA1 / RFU, RNF170 / Fold change vs veh, RNF170 / RFU, ZNF28 / Fold change vs veh, ZNF28 / RFU, RNGTT / Fold change vs veh, RNGTT / RFU, OGT / Fold change vs veh, OGT / RFU, BRD1 / Fold change vs veh, BRD1 / RFU, MARS / Fold change vs veh, MARS / RFU, ZNF655 / Fold change vs veh, ZNF655 / RFU, FAHD1 / Fold change vs veh, FAHD1 / RFU, BDP1 / Fold change vs veh, BDP1 / RFU, LRRCC1 / Fold change vs veh, LRRCC1 / RFU, ARID1A / Fold change vs veh, ARID1A / RFU, ZNF146 / Fold change vs veh, ZNF146 / RFU, ZNF330 / Fold change vs veh, ZNF330 / RFU, GPN3 / Fold change vs veh, GPN3 / RFU, C9orf123 / Fold change vs veh, C9orf123 / RFU, N4BP2L2 / Fold change vs veh, N4BP2L2 / RFU, ARFIP1 / Fold change vs veh, ARFIP1 / RFU, FAM179B / Fold change vs veh, FAM179B / RFU, BCL10 / Fold change vs veh, BCL10 / RFU, UHRF1BP1L / Fold change vs veh, UHRF1BP1L / RFU, BET1 / Fold change vs veh, BET1 / RFU, CNOT2 / Fold change vs veh, CNOT2 / RFU, ZNF268 / Fold change vs veh, ZNF268 / Fold change vs veh, ZNF507 / RFU, DGCR2 / Fold change vs veh, DGCR2 / RFU, WDSUB1 / Fold change vs veh, WDSUB1 / Fold change vs veh, HSP90B1 /// MIR3652 / RFU, ADSS / Fold change vs veh, ADSS / RFU, GK / Fold change vs veh, GK / RFU, ZNF148 / Fold change vs veh, ZNF148 / RFU, TAF9 / Fold change vs veh, TAF9 / RFU, SLC1A5 / Fold change vs veh, SLC1A5 / RFU, SLMO2 / Fold change vs veh, SLMO2 / RFU, ABCC4 / Fold change vs veh, ABCC4 / RFU, LOC101060439 /// RAP1B / Fold change vs veh, LOC101060439 /// RAP1B / RFU, RFX7 / Fold change vs veh, RFX7 / RFU, GTPBP10 / Fold change vs veh, GTPBP10 / RFU, CNEP1R1 / Fold change vs veh, CNEP1R1 / RFU, BIVM-ERCC5 /// ERCC5 / Fold change vs veh, BIVM-ERCC5 /// ERCC5 / RFU, ILF3 / Fold change vs veh, ILF3 / RFU 11762660_at / Fold change /veh 11762660_at / RFU VCAN (11757783_s_at) / Fold change /veh VCAN (11757783_s_at) / RFU DDX43 (11728927_at) / Fold change /veh DDX43 (11728927_at) / RFU KRT8 (11758188_x_at) / Fold change /veh KRT8 (11758188_x_at) / RFU NKD1 (11759106_at) / Fold change /veh NKD1 (11759106_at) / RFU SRD5A1 (11742802_a_at) / Fold change /veh SRD5A1 (11742802_a_at) / RFU TPSAB1 /// TPSB2 (11721975_s_at) / Fold change /veh TPSAB1 /// TPSB2 (11721975_s_at) / RFU GSTM3 (11746129_a_at) / Fold change /veh GSTM3 (11746129_a_at) / RFU IL23R (11737362_x_at) / Fold change /veh IL23R (11737362_x_at) / RFU TMEM51 (11727254_a_at) / Fold change /veh TMEM51 (11727254_a_at) / RFU PIWIL2 (11732686_x_at) / Fold change /veh PIWIL2 (11732686_x_at) / RFU ORM1 (11744905_x_at) / Fold change /veh ORM1 (11744905_x_at) / RFU CCDC152 (11743942_at) / Fold change /veh CCDC152 (11743942_at) / RFU ECM1 (11717891_a_at) / Fold change /veh ECM1 (11717891_a_at) / RFU IL23R (11748794_a_at) / Fold change /veh IL23R (11748794_a_at) / RFU TNFAIP8L3 (11732012_x_at) / Fold change /veh TNFAIP8L3 (11732012_x_at) / RFU MBOAT4 (11741988_at) / Fold change /veh MBOAT4 (11741988_at) / RFU 11764193_at / Fold change /veh 11764193_at / RFU TMEM53 (11763286_at) / Fold change /veh TMEM53 (11763286_at) / RFU MAGEB2 (11727129_at) / Fold change /veh MAGEB2 (11727129_at) / RFU TMEM200A (11744735_a_at) / Fold change /veh TMEM200A (11744735_a_at) / RFU CCDC152 (11751479_a_at) / Fold change /veh CCDC152 (11751479_a_at) / RFU FAM211A (11726209_a_at) / Fold change /veh FAM211A (11726209_a_at) / RFU RGS16 (11746705_a_at) / Fold change /veh RGS16 (11746705_a_at) / RFU VCAN (11755009_s_at) / Fold change /veh VCAN (11755009_s_at) / RFU RHOB (11743442_s_at) / Fold change /veh RHOB (11743442_s_at) / RFU RGS16 (11720943_a_at) / Fold change /veh RGS16 (11720943_a_at) / RFU RGS16 (11720944_at) / Fold change /veh RGS16 (11720944_at) / RFU, VPS4B / Fold change vs veh, VPS4B / RFU, CREB1 / Fold change vs veh, CREB1 / RFU, DNAJC13 / Fold change vs veh, DNAJC13 / RFU, GNAQ / Fold change vs veh, GNAQ / RFU, CDK5R1 / Fold change vs veh, CDK5R1 / RFU, ZRANB3 / Fold change vs veh, ZRANB3 / RFU, CUL4A / Fold change vs veh, CUL4A / RFU, CCNY / Fold change vs veh, CCNY / RFU, UFL1 / Fold change vs veh, UFL1 / RFU, COG3 / Fold change vs veh, COG3 / RFU, DIAPH2 / Fold change vs veh, DIAPH2 / RFU, SKA2 / Fold change vs veh, SKA2 / RFU, AFF3 / Fold change vs veh, AFF3 / RFU, LMF1 / Fold change vs veh, LMF1 / RFU, IPO11 / Fold change vs veh, IPO11 / RFU, DFFB / Fold change vs veh, DFFB / RFU, FOXP1 / Fold change vs veh, FOXP1 / RFU, CARD8 / Fold change vs veh, CARD8 / RFU, STRN3 / Fold change vs veh, STRN3 / RFU, ADK / Fold change vs veh, ADK / RFU, RASSF2 / Fold change vs veh, RASSF2 / RFU, WIPF1 / Fold change vs veh, WIPF1 / RFU, LARP1B / Fold change vs veh, LARP1B / RFU, RASA1 / Fold change vs veh, RASA1 / RFU, RB1 / Fold change vs veh, RB1 / RFU, PPFIA1 / Fold change vs veh, PPFIA1 / RFU, MAT2A / Fold change vs veh, MAT2A / RFU, CCT5 / Fold change vs veh, CCT5 / RFU, WDR92 / Fold change vs veh, WDR92 / RFU, CUX1 / Fold change vs veh, CUX1 / RFU, TTC7A / Fold change vs veh, TTC7A / RFU, TMEM135 / Fold change vs veh, TMEM135 / RFU, DEPTOR / Fold change vs veh, DEPTOR / RFU, CPM / Fold change vs veh, CPM / RFU, DNAJB6 / Fold change vs veh, DNAJB6 / RFU, CACNA2D3 / Fold change vs veh, CACNA2D3 / RFU, DTX4 / Fold change vs veh, DTX4 / RFU, TFCP2 / Fold change vs veh, TFCP2 / RFU, GMCL1 /// GMCL1P1 / Fold change vs veh, GMCL1 /// GMCL1P1 / RFU, AEBP2 / Fold change vs veh, AEBP2 / RFU, SNHG1 /// SNORD22 /// SNORD25 /// SNORD26 /// SNORD27 /// SNORD28 /// SNORD29 /// SNORD31 / Fold change vs veh, SNHG1 /// SNORD22 /// SNORD25 /// SNORD26 /// SNORD27 /// SNORD28 /// SNORD29 /// SNORD31 / Fold change (Aza/veh), C12orf56 (ProbeSet 11735607_a_at) / Fold change (ACY-1035/veh), C12orf56 (ProbeSet 11735607_a_at) / Fold change (Aza/veh), FGFR1OP (ProbeSet 11751329_s_at) / Fold change (ACY-1035/veh), FGFR1OP (ProbeSet 11751329_s_at) / Fold change (Aza/veh), VPS36 (ProbeSet 11739960_a_at) / Fold change (ACY-1035/veh), VPS36 (ProbeSet 11739960_a_at) / RFU SYPL1 (11715823_x_at) / Fold change /veh SYPL1 (11715823_x_at) / RFU IGFBP7 (11715501_s_at) / Fold change /veh IGFBP7 (11715501_s_at) / RFU REEP3 (11722064_at) / Fold change /veh REEP3 (11722064_at) / RFU IGLL1 (11728026_x_at) / Fold change /veh IGLL1 (11728026_x_at): dose or concentration left out as unconfirmed
Details: MV-4-11 cells, 48 hours

Structure (SMILES): Nc1ncn([C@@H]2O[C@H](CO)[C@@H](O)[C@H]2O)c(=O)n1 [azacitidine]
- RFU PODN (11730768_x_at): 27.35 RFU
